Measurements as given in patent US11123398B2, “Chemotherapeutic combinations of cationic antimicrobial peptides and chemotherapeutics” (LYTIX BIOPHARMA AS, priority 2014, dated 2021).
Non-standard residues stand in square brackets, D forms with d. Residues, ends and D or L forms follow the SMILES beside them. Dip = N[C@H](C(=O)O)C(c1ccccc1)c1ccccc1

Legend:
SK-OV-3 cell line = format: cell-based, human; details: 4 h
Protocol: (§1) Tumor cells were plated in 96-well flat-bottom microtitration plates (Nunc, Dutscher, Brumath, France) and incubated at 37° C. for 24 hours before treatment in 190 μl of drug-free culture medium supplemented or not with 10% FBS for adherent or suspension growing cell lines, respectively.
(§2) The adherent cell lines were washed once with 200 μl FBS-free culture medium before treatment. Tumor cells were incubated for 4 hours with 10 concentrations of compounds in ¼ dilution step with a top dose of 400 μM (range 4×10^−4 to 4×10^−10 M), with 1% (final concentration) Triton X-100 as positive control and FBS-free culture medium as negative control. The cells (190 μl) were incubated in a 200 μl final volume of FBS-free culture medium containing test substances at 37° C. under 5% CO2.
(§3) Three independent experiments were performed, each concentration being tested in quadruplicate. Control cells were treated with vehicle alone. At the end of treatments, the cytotoxic activity was evaluated by a MTS assay (see § 3.3.).
(§4) Like MTT, MTS is bioreduced by cells into a formazan product that is directly soluble in culture medium without processing, unlike MTT.
(§5) At the end of the cells treatment, 40 μl of a 0.22 μm filtered freshly combined solution of MTS (20 ml at 2 mg/ml, Ref G1111, Batch 235897, Exp March 2009, Promega, Charbonnières, France) and PMS (1 ml at 0.92 mg/ml, Ref P9625, Batch 065K0961, Sigma) in Dulbecco's Phosphate Buffered Saline (DPBS, Ref 17-513Q, Batch 6MB0152, Cambrex), were added in each well. Culture plates were incubated for 2 h at 37° C. Absorbency (OD) were measured at 490 nm in each well using VICTOR^3™ 1420 multilabeled counter (Wallac, PerkinElmer, Courtaboeuf, France).
(§6) IC50: drug concentration to obtain a 50% inhibition of cell proliferation.
(§7) The dose-response curves were plotted using XLFit 3 (IDBS, United Kingdom). The IC50 determination values were calculated using the XLFit 3 software from semi-log curves. Individual IC50 determination values as well as mean and SD values were generated.

T-47D cell line = format: cell-based, human; details: 4 h
Protocol: as §1, §2, §3, §4, §5, §6, §7

A375 cells = test: Mitotracker confocal imaging (mitochondrial membrane potential); format: cell-based, human; details: short time after peptide treatment; data not shown
Protocol: Cells were seeded as for live cell imaging, and treated with Mitotracker CMH2XROS (Invitrogen) at […] for 15 minutes prior to peptide treatment. Cells were treated with 17 μM LTX-315, with negative control serum-free RPMI only. After 60 min of incubation, cells were analyzed using a Zeiss microscope. All confocal imaging experiments were subsequently conducted at least twice with similar results.

[1] = Exposure time for cell killing (background statement); format: cell-based
[2] = tested on: murine A20 B-cell lymphoma; test: Murine A20 B-cell lymphoma tumours in mice, dose levels; format: in vivo; details: for Mean tumour size at day 1: prior to start of treatment
Protocol: The administration took place by intratumoural injection of LTX-315 dissolved in sterile saline.
The mice were divided into four groups (see Table 8 below for details). The intratumoural treatment was initiated when the tumours had reached the desired size of approximately 5 mm in diameter (minimum of 20 mm^2).
Three dose levels of LTX-315, 1 mg (Group 1), 0.5 mg (Group 2) and 0.25 mg (Group 3) per injection, were investigated. The volume was 50 μl for all injections. LTX-315 was dissolved in sterile 0.9% NaCl water solution. This vehicle was used as control (Group 4). All four groups received three injections.
A caliper was used for tumour size measurements and weighing and physical examination were used as health control.

HL-60 = format: cell-based, human; details: 24 h
Protocol: as §1
as §2, with “Tumor cells were incubated for 4 hours with 10 concentrations of compounds in ¼ dilution step with a” left out
as §3, §4, §5, §6, §7

IGROV-1 = format: cell-based, human; details: 24 h
Protocol: as §1
as §2, with “Tumor cells were incubated for 4 hours with 10 concentrations of compounds in ¼ dilution step with a” left out
as §3, §4, §5, §6, §7

[3] = tested on: HUV-EC-C normal cell line; format: cell-based, human; details: 24 h
Protocol: as §1
as §2, with “Tumor cells were incubated for 4 hours with 10 concentrations of compounds in ¼ dilution step with a” left out
as §3, §4, §5, §6, §7

MCF-7 = format: cell-based, human; details: 24 h
Protocol: as §1
as §2, with “Tumor cells were incubated for 4 hours with 10 concentrations of compounds in ¼ dilution step with a” left out
as §3, §4, §5, §6, §7

K-562 = format: cell-based, human; details: 24 h
Protocol: as §1
as §2, with “Tumor cells were incubated for 4 hours with 10 concentrations of compounds in ¼ dilution step with a” left out
as §3, §4, §5, §6, §7

[4] = tested on: panel of 37 human cancer cell lines; format: cell-based
Protocol: as §2, with “Tumor cells were incubated for 4 hours with 10 concentrations of” left out
as §3, §4, §5, §6, §7

MCF-7/mdr = test: MTS cytotoxicity assay, MCF-7/mdr; format: cell-based, human; details: IC50 resistant / IC50 sensitive line; doxorubicin resistance
Protocol: as §1, §2, §3, §4, §5, §6, §7
Resistance index was calculated using the following formula: […]
Resistance index was calculated for each compound for each couple of sensitive and resistant cell lines. Individual resistance index was calculated when IC50 values of both sensitive and corresponding resistant cell lines were determined within same experiment. In addition, resistance index was also calculated ratio of mean IC50 values obtained during three independent experiments.

[5] = Group 1: 1 mg intratumoural once daily days 1,2,3
[6] = Group 2: 0.5 mg intratumoural once daily days 1,2,3
[7] = Group 3: 0.25 mg intratumoural once daily days 1,2,3

## NCCCC[C@H](NC(=O)[C@@H](NC(=O)[C@H](Cc1c[nH]c2ccccc12)NC(=O)[C@H](CCCCN)NC(=O)[C@H](CCCCN)NC(=O)[C@H](Cc1c[nH]c2ccccc12)NC(=O)[C@H](Cc1c[nH]c2ccccc12)NC(=O)[C@H](CCCCN)NC(=O)[C@@H](N)CCCCN)C(c1ccccc1)c1ccccc1)C(N)=O [LTX-315, K-K-W-W-K-K-W-Dip-K-NH2] (H-KKWWKKW[Dip]K-NH2)
SK-OV-3 cell line
  IC50: 7.16 ± 0.99 µM
T-47D cell line
  IC50: 1.18 ± 0.25 µM
A375 cells
  Mitochondrial membrane potential (Mitotracker signal): loss of mitochondrial signal
[1]
  Exposure time causing cell death: 30 min
[2]; 1 mg and 0.5 mg, first period of the study
  Anti-tumour effect: strong and rapid anti tumour effect
[2]; [5]
  Mean tumour size on day 4: 0 mm^2
  Mean tumour size on day 9: 3.70 ± 2.40 mm^2
  Mean tumour size on day 14: 12.43 ± 7.87 mm^2
  Mean tumour size at day 1: 25.82 ± 0.80 mm^2
[2]; Group 1: 1 mg x3, n=7
  Free of Tumour at end of Follow-Up: 42.8% (3/7)
  Relapse of Tumour: 25%
  Tumour Response: complete response: 57.2% (4/7)
  Tumour Response: no response: 0%
  Tumour Response: partial response: 42.8% (3/7)
[2]; [6]
  Mean tumour size on day 4: 0 mm^2
  Mean tumour size on day 9: 11.41 ± 4.69 mm^2
  Mean tumour size on day 14: 61.08 ± 23.84 mm^2
  Mean tumour size at day 1: 22.03 ± 0.63 mm^2
[2]; Group 2: 0.5 mg x3, n=7
  Free of Tumour at end of Follow-Up: 28.57% (2/7)
  Relapse of Tumour: 0% (0/2)
  Tumour Response: complete response: 28.57% (2/7)
  Tumour Response: no response: 0%
  Tumour Response: partial response: 71.42%
[2]; Group 3, 0.25 mg/dose, first days
  Anti-tumour effect: a small inhibitory effect is observed during the first days
[2]; [7]
  Mean tumour size on day 4: 20.60 ± 5.71 mm^2
  Mean tumour size on day 9: 68.49 ± 12.74 mm^2
  Mean tumour size on day 14: 69.42 ± 17.70 mm^2
  Mean tumour size at day 1: 21.25 ± 0.64 mm^2
[2]; Group 3: 0.25 mg x3, n=9
  Free of Tumour at end of Follow-Up: 0%
  Tumour Response: complete response: 0% (0/9)
  Tumour Response: no response: 77.77%
  Tumour Response: partial response: 22.22%
[2]; all LTX-315 groups, intratumoural
  Adverse events or toxic effects: Except from the wound formation no other adverse events or toxic effects were observed
[2]; optimal dose, Group 1 (1 mg x3)
  Treated mice with complete tumour response: 3 of 7
HL-60
  IC50: 2.07 µM
IGROV-1
  IC50: 6.37 µM
[3]
  IC50: 23 µM
MCF-7
  IC50: 1.94 µM
K-562
  IC50: 3.27 µM
[4]
  Potency rank among the five compounds tested, 37 cell line panel: most potent compound from the five compounds tested
[4]; 4 h
  IC50: 3.63 ± 1.45 µM
[4]; conclusion
  IC50 range against 37 human cancer cell lines: micromolar to ten micromolar range
MCF-7/mdr
  Resistance index (RI), MCF-7/mdr: 1.12
